Laboratory results from patent publication US20100063047A1 (KALYPSYS, INC., priority 2008, published 2010).

Biological target: T1, human H1 (Homo sapiens, UniProt P35367)
T1 construct: host or cells: CHO-K1, also expressing mitochondrion-targeted aequorin
Experiment: In vitro histamine H1 receptor cell-based aequorin bioluminescence antagonist assay
Settings: CHO-K1 cells expressing human H1 and aequorin; histamine at EC80; read-out: H1 Antagonist EC50
Summary of the method: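 CHO-K1 cells stably expressing human H1 or H4 plus mitochondrial aequorin (H4 also with Gα16), loaded with 5 μM coelenterazine-h for 4 h at ~21 °C. Compounds preincubated 15 min at room temperature, then histamine at EC80 added.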

T1 sequence (P35367 whole entry): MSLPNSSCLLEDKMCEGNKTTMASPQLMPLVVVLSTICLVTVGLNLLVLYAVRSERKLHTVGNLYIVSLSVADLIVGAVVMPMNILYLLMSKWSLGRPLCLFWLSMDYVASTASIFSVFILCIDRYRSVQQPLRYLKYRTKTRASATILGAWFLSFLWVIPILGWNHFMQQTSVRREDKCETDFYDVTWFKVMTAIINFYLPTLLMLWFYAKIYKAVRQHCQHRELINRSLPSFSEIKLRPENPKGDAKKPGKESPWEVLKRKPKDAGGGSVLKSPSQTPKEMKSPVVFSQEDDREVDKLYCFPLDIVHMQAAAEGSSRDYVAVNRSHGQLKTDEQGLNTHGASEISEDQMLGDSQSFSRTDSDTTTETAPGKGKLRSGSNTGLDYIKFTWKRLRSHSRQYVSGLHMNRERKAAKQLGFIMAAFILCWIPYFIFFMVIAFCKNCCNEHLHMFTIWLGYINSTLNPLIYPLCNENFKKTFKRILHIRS

Row | Structure (SMILES) | EC50 [µM]
1 | Cc1csc2ncnc(NC(CO)C(C)C)c12 (stereo not drawn) [Example 82, 3-methyl-2-({5-methylthieno[2,3-d]pyrimidin-4-yl}amino)butan-1-ol] | > 10
2 | Cc1ccc(N2CCN(c3ncnc4scc(C)c34)CC2)c(C)c1 [Example 258, 1-(2,4-dimethylphenyl)-4-{5-methylthieno[2,3-d]pyrimidin-4-yl}piperazine] | > 10
3 | CCCC(Nc1ncnc2sccc12)c1ccccc1 (stereo not drawn) [Example 307, N-(1-phenylbutyl)thieno[2,3-d]pyrimidin-4-amine] | > 10
4 | Cc1csc2ncnc(NCCc3ccc4c(c3)OCO4)c12 [Example 175, N-[2-(2H-1,3-benzodioxol-5-yl)ethyl]-5-methylthieno[2,3-d]pyrimidin-4-amine] | > 10
5 | Cc1csc2ncnc(NC3CCCCC3)c12 [Example 76, N-cyclohexyl-5-methylthieno[2,3-d]pyrimidin-4-amine] | > 10
6 | Cc1csc2ncnc(NCc3ccc(F)cc3)c12 [Example 103, N-[(4-fluorophenyl)methyl]-5-methylthieno[2,3-d]pyrimidin-4-amine] | > 10
7 | Cc1csc2ncnc(OCCc3ccc(Cl)cc3)c12 [Example 26, 4-(4-chlorophenethoxy)-5-methylthieno[2,3-d]pyrimidine] | > 10
8 | c1ccc(CC2CCN(c3ncnc4sccc34)CC2)cc1 [Example 302, 4-(4-benzylpiperidin-1-yl)thieno[2,3-d]pyrimidine] | > 10
9 | Fc1ccccc1CCNc1ncnc2sc3c(c12)CCCC3 [Example 42, N-[2-(2-fluorophenyl)ethyl]-8-thia-4,6-diazatricyclo[7.4.0.0^{2,7}]trideca-1(9),2(7),3,5-tetraen-3-amine] | > 10
10 | COc1ccccc1CCNc1ncnc2scc(C)c12 [Example 145, N-[2-(2-methoxyphenyl)ethyl]-5-methylthieno[2,3-d]pyrimidin-4-amine] | > 10
11 | Clc1ccc(CCNc2ccnc3sccc23)cc1 [Example 38, N-(4-chlorophenethyl)thieno[2,3-b]pyridin-4-amine] | > 10
12 | Cc1csc2ncnc(N3CCCCC3C)c12 (stereo not drawn) [Example 190, 2-methyl-1-{5-methylthieno[2,3-d]pyrimidin-4-yl}piperidine] | > 10
13 | CCc1cc2c(N3CCN(Cc4ccccc4)CC3)ncnc2s1 [Example 14, 4-(4-benzylpiperazin-1-yl)-6-ethylthieno[2,3-d]pyrimidine] | > 10
14 | Cc1csc2ncnc(NCC(C)c3ccccc3)c12 (stereo not drawn) [Example 119, 5-methyl-N-(2-phenylpropyl)thieno[2,3-d]pyrimidin-4-amine] | > 10
15 | Cc1csc2ncnc(NCc3ccc(Cl)cc3Cl)c12 [Example 167, N-[(2,4-dichlorophenyl)methyl]-5-methylthieno[2,3-d]pyrimidin-4-amine] | > 10
16 | Cc1csc2ncnc(NCc3ccc(Cl)cc3)c12 [Example 131, N-[(4-chlorophenyl)methyl]-5-methylthieno[2,3-d]pyrimidin-4-amine] | > 10
17 | CCCCN(Cc1ccccc1)c1ncnc2scc(C)c12 [Example 235, N-benzyl-N-butyl-5-methylthieno[2,3-d]pyrimidin-4-amine] | > 10
18 | Cc1csc2nccc(NCCc3ccc(Cl)cc3)c12 [Example 36, N-(4-chlorophenethyl)-3-methylthieno[2,3-b]pyridin-4-amine] | > 10
19 | Cc1csc2ncnc(NCc3ccc(C(F)(F)F)cc3)c12 [Example 164, 5-methyl-N-{[4-(trifluoromethyl)phenyl]methyl}thieno[2,3-d]pyrimidin-4-amine] | > 10
20 | COc1ccc(CCNc2ccnc3scc(C)c23)cc1 [Example 37, N-(4-methoxyphenethyl)-3-methylthieno[2,3-b]pyridin-4-amine] | > 10
21 | CCOc1ccccc1CNc1ncnc2scc(C)c12 [Example 146, N-[(2-ethoxyphenyl)methyl]-5-methylthieno[2,3-d]pyrimidin-4-amine] | > 10
